In patent publication US20060165987A1, “Stealthy polymeric biodegradable nanospheres and uses thereof” (priority 2002, published 2006):

How the values were obtained:
[1] = In vitro Rhodamine release (dialysis bag, phosphate buffer); type: physicochemical; details: 37° C.
Procedure: The in vitro Rhodamine release profiles from the (-PLA-PEG-PLA-)n multiblock NS were determined as follows: NS were precisely weighed and suspended in 10 ml of phosphate buffer solution. The NS suspension was introduced into a dialysis membrane bag (Spectra/por™, Molecular weight cut off: 2000-4000, Spectrum Medical Industries, Inc., CA, USA) that was placed in 150 ml of phosphate buffer. This solution was stirred at 37° C. At pre-determined time intervals, 3 ml aliquots of the release medium were withdrawn from the release medium. The release of Rhodamine was monitored using a spectrofluorometer at an excitation wavelength of […] and emission wavelength of 554 nm. The sample was replaced in the release medium. The samples were analyzed by fluorescence since sensitivity will be needed for the incoming blood samples analysis.

[2] = Organ distribution by fluorescence microscopy; type: in vivo; details: rats, after IV injection of nanospheres containing rhodamine, image analysis
Procedure: 0.5 ml was taken at each time step. Plasma levels of rhodamine were measured by fluorescence detection. […] Organs were examined by fluorescence microscopy.

[3] = lifetime of free rhodamine; cited from earlier work

SMILES: CCN(CC)c1ccc2c(-c3ccccc3C(=O)O)c3ccc(=[N+](CC)CC)cc-3oc2c1 [Rhodamine, Rhodamine B]
- time of release [1]: ≤ 30 min
- Rhodamine accumulation in the organs [2]: No Rhodamine accumulation
- t1/2 in the body [3]: 3 h
